The subject of one series is Salmonella typhimurium (strains TA 98, TA 100, TA 1535, TA 1537, TA 1538). In words: Ames mutagenicity test with Salmonella typhimurium in the absence and presence of S-9-mix. It counts as cell-based.
Settings: not given
The method, then: The examples below will describe the invention in more detail. The mutagenicity test was carried out, following Ames, with Salmonella typhimurium (strains TA 98, TA 100, TA 1535, TA 1537, TA 1538) in the absence and presence of S-9-mix (B. N. Ames et al., Mut. Res. Vol. 31, p. 347-364 (1975)).
(In general: The Ames test detects mutagens through reverse mutation in bacteria.)
Regarding `CC(C)Cc1cc(-c2ccc(N)c(CC(C)C)c2)ccc1N` [Example 6], the Ames test entry is given as “negative”.

As to `CCCc1cc(-c2ccc(N)c(CCC)c2)ccc1N` [Example 4], the Ames test result was “negative”.

For `CC(C)Oc1cc(-c2ccc(N)c(OC(C)C)c2)ccc1N` [Example 9], the Ames test entry is on record as “negative”.

For `CCCCc1cc(-c2ccc(N)c(CCCC)c2)ccc1N` [Example 5], the Ames test result is “negative”.

Consider `CCCOc1cc(-c2ccc(N)c(OCCC)c2)ccc1N` [Example 8], for which the Ames test result is “negative”.

Turning to `CCC(C)Oc1cc(-c2ccc(N)c(OC(C)CC)c2)ccc1N` (stereo not shown) [Example 10], the Ames test entry is recorded as “negative”.

`CCC(C)c1cc(-c2ccc(N)c(C(C)CC)c2)ccc1N` (stereo not shown): the Ames test result is on record as “negative”.

Still in this series, the particulars now being: Examples 1-3.
For `CC(C)COc1cc(-c2ccc(N)c(OCC(C)C)c2)ccc1N` [Example 2, 3,3'-diisobutoxybenzidine], the Ames mutagenicity test entry is given as “negative”.

With `CC(C)c1cc(-c2ccc(N)c(C(C)C)c2)ccc1N` [Example 1, 3,3-diisopropylbenzidine dichlorohydrate], the Ames mutagenicity test result is listed as “negative”.

For `COCCOc1cc(-c2ccc(N)c(OCCOC)c2)ccc1N` [Example 3, 3,3'-di(2-methoxyethoxy)-benzidine], the Ames mutagenicity test entry is “negative”.

The values above are taken from US4987258A, “4,4'-diaminodiphenyl compounds, process for their preparation and their use” (Hoechst Aktiengesellschaft, priority 1987, dated 1991).
